Results from patent publication US8211933B2, “3.3.0 bicyclic GlyT1 inhibitors and methods of making and using same” (Vanderbilt University, priority 2008, dated 2012).

Target: T1, GlyT1 (Homo sapiens, UniProt P48067)
T1 construct: Human placental choriocarcinoma cells endogenously expressing GlyT1 can be cultured using standard conditions; host or cells: JAR human placental choriocarcinoma cells
T1 sequence (P48067 1-706): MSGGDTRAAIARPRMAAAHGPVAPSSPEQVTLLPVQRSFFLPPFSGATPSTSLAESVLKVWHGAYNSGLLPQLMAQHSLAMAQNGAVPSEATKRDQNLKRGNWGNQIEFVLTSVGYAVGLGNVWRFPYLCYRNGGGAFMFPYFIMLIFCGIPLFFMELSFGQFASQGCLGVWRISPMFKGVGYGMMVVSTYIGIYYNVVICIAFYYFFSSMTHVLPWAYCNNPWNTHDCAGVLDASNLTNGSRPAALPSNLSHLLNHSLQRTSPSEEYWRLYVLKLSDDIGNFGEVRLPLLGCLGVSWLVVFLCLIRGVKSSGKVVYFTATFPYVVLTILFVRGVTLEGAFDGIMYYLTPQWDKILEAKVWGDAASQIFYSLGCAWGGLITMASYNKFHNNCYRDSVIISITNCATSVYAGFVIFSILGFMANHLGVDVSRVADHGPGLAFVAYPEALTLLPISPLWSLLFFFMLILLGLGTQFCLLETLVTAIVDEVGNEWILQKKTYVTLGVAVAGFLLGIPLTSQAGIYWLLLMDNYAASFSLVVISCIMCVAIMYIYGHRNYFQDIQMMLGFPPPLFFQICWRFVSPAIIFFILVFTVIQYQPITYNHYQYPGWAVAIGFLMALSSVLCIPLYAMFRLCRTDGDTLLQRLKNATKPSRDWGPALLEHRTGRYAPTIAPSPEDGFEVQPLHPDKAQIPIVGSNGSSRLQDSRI
Test: [14C]-glycine uptake in JAR cells endogenously expressing GlyT1 (Cytostar T scintillation proximity)
Format: cell-based
Conditions: inhibition of [14C]-glycine uptake (10 μM), JAR cells, 3 h; read-out: Potency (IC50)
Experimental: Human placental choriocarcinoma cells endogenously expressing GlyT1 can be cultured using standard conditions. Cells can then be grown at 37° C. in a humidified atmosphere 40-48 hours before the assay. Culture medium can be removed from the culture plate, and cells can be incubated with an amount of TBlA buffer with or without the compounds of the present invention for a sufficient period of time. Then an amount of [^14C]-glycine diluted with TBlA can be added to each well. After incubation the microplates can be sealed and counted. Non-specific uptake of [^14C]-glycine can be determined in the presence of unlabeled glycine. To determine potencies, a range of concentrations of the compounds of the present invention can be added to the cells, followed by the fixed concentration of [^14C]-glycine. The concentration of the present compound that inhibited half of the specific uptake of [^14C]glycine (IC50 value) can be determined from the assay data by non-linear curve fitting.
The procedure used was analogous to that disclosed in Williams, J. B.; Mallorga P. J.; Lemaire W.; Williams D. L.; Na S.; Patel S.; Conn J. P.; Pettibone D. J.; Austin C.; Sur C.; “Development of a scintillation proximity assay for analysis of Na+/Cl−-dependent neurotransmitter transporter activity,” ANAL. BIOCHEM.
Cells were plated at a density of 1.3×10^4 cells/well and grown at 37° C. in a humidified atmosphere of 5% CO2 for 40-48 h. Culture medium was removed from the Cytostar T plate and JAR cells were incubated with 30 μl A of TBlA buffer (120 mM NaC1, 2 mM KCl, 1 mM CaCl2, 1 mM MgCl2, 10 mM Hepes, 5 mM L-alanine, pH 7.5 adjusted with 1 M Tris base) with or without multiple concentrations of test compound (added at 2× final concentration) for 1 min. Then 30 μl of [^14C]-glycine (Perkin-Elmer) diluted in TBlA was added to each well to give a final concentration of 10 μM. Cytostar T plates were then incubated in the dark at room temperature for 3 h, sealed with opaque white bottom plate seals (Perkin-Elmer) and clear top plate seals (Topseal A, Perkin-Elmer), and were counted on a Top Count (Packard). Glycine uptake was determined by measuring radioactivity in each well and plotted as a function of concentration of test compound. […] Nonspecific uptake of [^14C]-glycine was determined in the presence of 10 mM cold glycine. [^14C]-taurine (American Radiolabeled Chemicals, Inc.) uptake experiments were performed according to the same protocol except that 10 mM cold taurine was used to determine nonspecific uptake. […] COS-7 cells were transiently transfected with the human GlyT2 cDNA (Origene Technologies Inc., SC303452) using Fugene 6 (Roche) according to the manufacturer's instructions in Dulbecco's modified Eagle's medium (DMEM, Invitrogen) containing 10% Fetal Bovine Serum, 10 mM HEPES, 1 mM sodium pyruvate, penicillin (100 μg/ml), and streptomycin (100 μg/ml). The following day, the cells were plated at a density of 5×10^5 cells/well in Cytostar T plates and maintained at 37° C. in a humidified atmosphere of 5% CO2 for 24 h. GlyT2 glycine uptake experiments were performed according to the same protocol previously described.

IC50	SMILES
903 nM	Cn1cnc(S(=O)(=O)N2CC3CCC(NC(=O)c4ccc(F)c(F)c4)C3C2)c1 (centres unmarked) [Compound 7j, 3,4-difluoro-N-(2-(1-methyl-1H-imidazol-4-ylsulfonyl)octahydrocyclopenta[c]pyrrol-4-yl)benzamide]

Same assay, conditions: read-out: Potency (IC50)

SMILES	IC50
Cn1cnc(S(=O)(=O)N2CC3CCC(NC(=O)c4ccccc4C(F)(F)F)C3C2)c1 (centres unmarked) [Compound 7d, N-(2-(1-methyl-1H-imidazol-4-ylsulfonyl)octahydrocyclopenta[c]pyrrol-4-y1)-2-(trifluoromethyl)benzamide]	78 nM
Cn1cnc(S(=O)(=O)N2CC3CCC(NC(=O)c4c(F)cccc4F)C3C2)c1 (centres unmarked) [Compound 7i, 2,6-difluoro-N-(2-(1-methy1-1H-imidazol-4-ylsulfonyl)octahydrocyclopenta[c]pyrrol-4-yl)benzamide]	630 nM
Cn1cnc(S(=O)(=O)N2CC3CCC(NC(=O)c4ccc(Cl)cc4)C3C2)c1 (centres unmarked) [Compound 7c, 4-chloro-N-(2-(1-methyl-1H-imidazol-4-ylsulfonyl)octahydrocyclopenta[c]pyrrol-4-yl)benzamide]	1030 nM
CCCS(=O)(=O)N1CC2CCC(NC(=O)c3ccc(Cl)cc3Cl)C2C1 (centres unmarked) [Compound 71, 2,4-dichloro-N-(2-(propylsulfonyl)octahydrocyclopenta[c]pyrrol-4-yl)benzamide]	7000 nM
Cn1cnc(S(=O)(=O)N2CC3CCC(NC(=O)c4ccc(F)cc4)C3C2)c1 (centres unmarked) [Compound 7h, 4-fluoro-N-(2-(1-methyl-1H-imidazol-4-ylsulfonyl)octahydrocyclopenta[c]pyrrol-4-yl)benzamide]	2200 nM
Cn1cnc(S(=O)(=O)N2CC3CCC(NC(=O)c4ccccc4F)C3C2)c1 (centres unmarked) [Compound 7f, 2-fluoro-N-(2-(1-methyl-1H-imidazol-4-ylsulfonyl)octahydrocyclopenta[c]pyrrol-4-yl)benzamide]	1800 nM

Second part, the compound after the results:

IC50	SMILES
925 nM	Cn1cnc(S(=O)(=O)N2CC3CCC(NC(=O)c4ccc(F)cc4F)C3C2)c1 (centres unmarked) [Compound 7e, 2,4-difluoro-N-(2-(1-methy1-1H-imidazol-4-ylsulfonyl)octahydrocyclopenta[c]pyrrol-4-yl)benzamide]
101 nM	Cn1cnc(S(=O)(=O)N2CC3CCC(NC(=O)c4ccccc4Cl)C3C2)c1 (centres unmarked) [Compound 7b, 2-chloro-N-(2-(1-methyl-1H-imidazol-4-ylsulfonyl)octahydrocyclopenta[c]pyrrol-4-yl)benzamide]
891 nM	Cn1cnc(S(=O)(=O)N2CC3CCC(NC(=O)c4ccc(Cl)c(Cl)c4)C3C2)c1 (centres unmarked) [Compound 7g, 3,4-dichloro-N-(2-(1-methyl-1H-imidazol-4-ylsulfonyl)octahydrocyclopenta[c]pyrrol-4-yl)benzamide]

Same assay, conditions: result in words; inhibition of [14C]-glycine uptake (10 μM), JAR cells, 3 h

Potency (IC50)	SMILES
Inactive	Cn1cnc(S(=O)(=O)N2CC3CCC(NC(=O)c4ccc(Cl)cc4Cl)C3C2)c1 (centres unmarked) [Compound 5b, 2,4-dichloro-N-(2-(1-methyl-1H-imidazol-4-ylsulfonyl)octahydrocyclopenta[c]pyrrol-4-yl)benzamide]
